Experimental data from patent publication US20150126369A1, “SYNERGISTIC HERBICIDAL COMPOSITION” (ROTAM AGROCHEM INTERNATIONAL COMPANY LIMITED, priority 2013, published 2015).

Legend:
Format in all cases: in vivo
Beckmannia = assay: Field test, postemergence herbicidal activity on Beckmannia in sulfonylurea-resistant rape
From the text: (§1) A synergistic effect exists when the effect of the composition exceeds the sum of the effects of the compounds applied separately. The expected effect for a specific combination of two active compounds can be calculated using a so-called “Colby formula” (see S. R. Colby, “Calculating Synergistic and Antagonistic Responses of Herbicide Combinations”, Weeds 1967,15, 20-22) as follows: if
(§2) If the actually observed activity (O) is greater than the expected activity (E), then the composition is superadditive, i.e., synergism is present.
(§3) Sulfonylurea herbicides-resistant non-genetically modified rape crops were planted with typical weeds under natural outdoors conditions. When the rape plants grew, the weed populations naturally occurred. The weeds were treated during postemergence at 2-4 leaf stage. To reflect the synergistic effect, they were treated with a lower dosage than the common dosage.

Chenopodium = assay: Field test, postemergence herbicidal activity on Chenopodium in sulfonylurea-resistant rape
From the text: as §1, §2, §3

Alopecurus = assay: Field test, postemergence herbicidal activity on Alopecurus in sulfonylurea-resistant rape; details: four weeks after the treatment; for pest or weed control at 10 g/ha: Alopecurus, post-emergence, 672 h, read-out: Injury of Alopecurus % Experimental value
From the text: (§4) A synergistic effect exists when the effect of the composition exceeds the sum of the effects of the compounds applied separately.
as §2
(§5) Sulfonylurea herbicides-resistant non-genetically modified rape crops were planted with typical weeds under natural outdoors conditions. When the rape plants grew, the weed populations naturally occurred. The weeds were treated during postemergence at 2-4 leaf stage.

Datura = assay: Field test, postemergence herbicidal activity against Datura in sulfonylurea-resistant rape; details: four weeks after the treatment; for pest or weed control at 5 g/ha: Datura, post-emergence, 672 h, read-out: Injury of Datura % Experimental value
From the text: as §4, §2, §5

Stellaria = assay: Field test, postemergence herbicidal activity on Stellaria in sulfonylurea-resistant rape; details: 10 gram ai/ha, four weeks after the treatment; for pest or weed control at 10 g/ha: Stellaria, post-emergence, 672 h, read-out: Injury of Stellaria % Experimental value
From the text: as §4, §2, §5

Setaria = assay: Field test, postemergence herbicidal activity on Setaria in sulfonylurea-resistant rape; details: four weeks after the treatment; for pest or weed control at 1 g/ha: Setaria, post-emergence, 672 h, read-out: Injury of Setaria % Experimental value
From the text: as §4, §2, §5

Galium = assay: Field test, postemergence herbicidal activity on Galium in sulfonylurea-resistant rape; details: four weeks after the treatment; for pest or weed control at 0.1 g/ha: Galium, post-emergence, 672 h, read-out: Injury of Galium % Experimental value
From the text: as §4, §2, §5

[1] = sulfonylurea alone, 10 gram ai/ha
[2] = sulfonylurea alone, 5 gram ai/ha
[3] = post-emergence, 672 h, sulfonylurea alone, 10 gram ai/ha, four weeks after the treatment, read-out: Injury of Beckmannia % Experimental value
[4] = Chenopodium, post-emergence, 672 h, sulfonylurea alone, 10 gram ai/ha, four weeks after the treatment, read-out: Injury of Chenopodium % Experimental value
[5] = sulfonylurea alone, 1 gram ai/ha
[6] = sulfonylurea alone, 0.1 gram ai/ha
[7] = sulfonylurea alone, 10 gram ai/ha, four weeks after the treatment

Row | Compound | pest or weed control at 10 g/ha (Alopecurus; [1]) | pest or weed control at 5 g/ha (Datura; [2]) | pest or weed control at 10 g/ha (Stellaria; sulfonylurea alone) | pest or weed control at 10 g/ha (Beckmannia; [3]) | pest or weed control at 10 g/ha (Chenopodium; [4]) | pest or weed control at 1 g/ha (Setaria; [5]) | pest or weed control at 0.1 g/ha (Galium; [6]) | further results
1 | CCC/C(=N\OCC)C1=C(O)CC(CC(C)SCC)CC1=O (racemic) [sethoxydim, (±)-2-[1-(ethoxyimino)butyl]-5-[2-(ethylthio)propyl]-3-hydroxy-2-cyclo hexen-1-one] |  |  |  |  |  |  |  | pest or weed control at 0.2 g/ha (Beckmannia; post-emergence, 672 h, read-out: Injury of Beckmannia % Experimental value): 0%; pest or weed control at 0.1 g/ha (Chenopodium; Chenopodium, post-emergence, 672 h, read-out: Injury of Chenopodium % Experimental value): 0%
2 | COc1cc(OC)nc(NC(=O)NS(=O)(=O)N(C)S(C)(=O)=O)n1 [amidosulfuron, 1-(4,6-dimethoxypyrimidin-2-yl)-3-mesyl(methyl)sulfamoylurea] | 0% | 27% | 35% | 0% | 35.8% | 0% | 5% | 
3 | COC(=O)c1ccccc1CS(=O)(=O)NC(=O)Nc1nc(OC)cc(OC)n1 [bensulfuron-methyl, methyl 2-[((4,6-dimethoxypyrimidin-2-yl)aminocarbonylamino]sulfonylmethyl)benzoate] | 0% | 32% | 64% | 0% | 12.2% | 0% | 16% | 
4 | COc1nc(C)nc(NC(=O)NS(=O)(=O)c2ccccc2Cl)n1 [chlorsulfuron] | 54% | 34% | 55% | 36.2% | 53.6% | 0% | 10% | 
5 | COc1cc(OC)nc(NC(=O)NS(=O)(=O)Nc2ccccc2C(=O)C2CC2)n1 [cyclosulfamuron] | 0% | 26% | 48% | 0% | 4.1% | 0% | 9% | 
6 | COC(=O)c1ccccc1S(=O)(=O)NC(=O)Nc1nc(C)nc(OC)n1 [metsulfuron-methyl, methyl 2-[(4-methoxy-6-methyl-1,3,5-triazin-2-yl)ureidosulfonyl]benzoate] | 82% | 27% | 58% | 24.8% | 88.4% | 0% | 11% | 
7 | Cc1ccnc(NC(=O)NS(=O)(=O)c2ccccc2[N+](=O)[O-])n1 [monosulfuron] |  |  |  |  |  |  |  | Injury of Alopecurus % Experimental value (Alopecurus; [1]): 5%; Injury of Datura % Experimental value (Datura; [2]): 24%; Injury of Stellaria % Experimental value (Stellaria; sulfonylurea alone): 34%; Injury of Beckmannia % Experimental value (Beckmannia; [7]): 7%; Injury of Chenopodium % Experimental value (Chenopodium; [7]): 23.5%; Injury of Setaria % Experimental value (Setaria; [5]): 0%; Injury of Galium % Experimental value (Galium; [6]): 7%
8 | COc1cc(OC)nc(NC(=O)NS(=O)(=O)c2ncccc2C(=O)N(C)C)n1 [nicosulfuron, 2-(4,6-dimethoxypyrimidin-2-ylcarbamoylsulfamoyl)-N,N-dimethylnicotinamide] | 5% | 11% | 60% | 50.3% | 4% | 2% | 1% | 
9 | COC(=O)c1sccc1S(=O)(=O)NC(=O)Nc1nc(C)nc(OC)n1 [thifensulfuron-methyl, 3-(4-methoxy-6-methyl-1,3,5-triazin-2-yl)-1-(2-methoxyformylthiophen-3-yl)-sulfonylurea] | 0% | 22% | 57% | 0% | 8.1% | 0% | 8% | 
10 | COc1nc(C)nc(NC(=O)NS(=O)(=O)c2ccccc2OCCCl)n1 [triasulfuron, 1-[2-(2-chloroethoxyl)phenylsulfonyl]-3-(4-methoxy-6-methyl-1,3,5-triazin-2-yl)urea] | 0% | 28% | 40% | 0% | 22.5% | 0% | 13% | 
11 | (±)-2-[(E)-3-chloroallyloxyimino]propyl-5-[2-(ethylthio) propyl]-3-hydroxycyclohexen-2-one [clethodim] |  |  |  |  |  |  |  | Injury of Alopecurus % Experimental value (Alopecurus; clethodim alone, 1 gram ai/ha): 5%; Injury of Datura % Experimental value (Datura; clethodim alone, 50 gram ai/ha): 0%; Injury of Stellaria % Experimental value (Stellaria; clethodim alone): 0%; Injury of Setaria % Experimental value (Setaria; clethodim alone, 50 gram ai/ha): 57.4%; Injury of Galium % Experimental value (Galium; clethodim alone, 10 gram ai/ha): 0%
